The results in this text go back to US20030055065A1, “Tricyclic amide and urea compounds useful for inhibition of G-protein function and for treatment of proliferative diseases” (priority 1993, published 2003).

For the assay, the target named is T1, farnesyl protein transferase (FPT), partially purified from rat brain (Rattus norvegicus, UniProt Q02293+Q04631).
T1 construct: were partially purified from rat brain by ammonium sulfate fractionation followed by Q-Sepharose
Put plainly: Inhibition of farnesyl protein transferase (transfer of [3H]farnesyl to Ras-CVLS). The format is biochemical. The settings on record: for IC50: Ras-CVLS farnesylation, partially purified rat brain FPT, read-out: FPT IC50. As to the method: 1. In vitro enzyme assays: Inhibition of farnesyl protein transferase and geranylgeranyl protein transferase.
Human farnesyl protein transferase was also expressed in E. coli, using cDNA clones encoding both the α and β subunits. […] Human farnesyl protein transferase was partially-purified from the soluble protein fraction of E. coli as described above. […] Two forms of val^12-Ha-Ras protein were prepared as substrates for these enzymes, differing in their carboxy terminal sequence. One form terminated in cysteine-valine-leucine-serine (Ras-CVLS) the other in cystein-valine-leucine-leucine (Ras-CVLL). Ras-CVLS is a substrate for the farnesyl protein transferase while Ras-CVLL is a substrate for geranylgeranyl protein transferase I. The cDNAs encoding these proteins were constructed so that the proteins contain an amino-terminal extension of 6 histidine residues. Both proteins were expressed in Escherichia coli and purified using metal chelate affinity chromatography. The radiolabelled isoprenyl pyrophosphate substrates, [^3H]farnesyl pyrophosphate and [3H]geranylgeranyl pyrophosphate, were purchased from DuPont/New England Nuclear.
The reaction was allowed to proceed for 30 minutes at room temperature and then stopped with 0.5 ml of 4% sodium dodecyl sulfate (SDS) followed by 0.5 ml of cold 30% trichloracetic acid (TCA). Samples were allowed to sit on ice for 45 minutes and precipitated Ras protein was then collected on GF/C filter paper mats using a Brandel cell harvester. […] Percent inhibition was calculated relative to the DMSO vehicle control.

Values joined by “and” are separate entries in the source; they are usually repeats but may differ in a detail not shown here. Equal values may be shown once. Where only a bound is given, the exact number is not on record here.

T1 sequence (Q02293 whole entry, one chain of several): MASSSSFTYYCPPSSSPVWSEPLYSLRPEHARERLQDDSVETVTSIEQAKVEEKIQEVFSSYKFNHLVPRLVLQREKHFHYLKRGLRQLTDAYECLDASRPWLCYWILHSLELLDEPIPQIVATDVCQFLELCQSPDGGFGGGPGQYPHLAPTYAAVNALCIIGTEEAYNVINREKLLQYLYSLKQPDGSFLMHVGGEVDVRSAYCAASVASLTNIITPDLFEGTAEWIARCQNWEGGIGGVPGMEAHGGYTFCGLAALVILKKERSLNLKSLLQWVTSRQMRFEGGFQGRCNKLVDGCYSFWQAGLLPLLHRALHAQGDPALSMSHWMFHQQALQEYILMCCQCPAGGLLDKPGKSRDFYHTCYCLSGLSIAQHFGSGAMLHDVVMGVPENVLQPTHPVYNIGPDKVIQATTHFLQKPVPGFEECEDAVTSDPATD

In the case of `Cc1ccc(S(=O)(=O)NC(=O)N2CCC(=C3c4ccc(Cl)cc4CCc4cccnc43)CC2)cc1` [Example 120], the FPT inhibition (at 39 μM) was determined as 4% at 39 μM.

Consider `O=C1CCC(C(=O)N2CCC(=C3c4ccc(Cl)cc4CCc4cccnc43)CC2)N1` (stereo not shown) [Example 123], for which the FPT inhibition (at 12.6 μM) is 23% at 12.6 μM.

On to `Cc1cc(C(=O)N2CCC(=C3c4ccc(Cl)cc4CCc4cccnc43)CC2)cc(Cl)n1` [Example 124], for which the FPT inhibition (at 12.8 μM) turned out to be 37% at 12.8 μM.

As for `O=C(Cc1c(O)cccc1O)N1CCC(=C2c3ccc(Cl)cc3CCc3cccnc32)CC1` [Example 125], the IC50 was 10.3 µM.

Consider `O=C(Cc1c[nH]c2ccccc12)N1CCC(=C2c3ccc(Cl)cc3CCc3cccnc32)CC1` [Example 129], for which, under “at 11.8 μM”, the FPT inhibition turned out to be 32% at 11.8 μM.

Under “at 12.1 μM”, `CC(=O)N1CCC(=C2c3ccc(Cl)cc3CCc3ccc[n+](C)c32)CC1` [Example 130] registered an FPT inhibition of 7% at 12.1 μM.

`O=C(c1cc[n+]([O-])cc1)N1CCC(=C2c3ccc(Cl)cc3CCc3ccc[n+]([O-])c32)CC1` [Example 131] yielded an FPT inhibition (at 13.4 μM) of 16% at 13.4 μM.

For the setting “at 15 μM”, `CC(=O)N1CCC(=C2c3ccc(Cl)cc3CCc3c(C)cc[n+]([O-])c32)CC1` [Example 132] had an FPT inhibition of 22% at 15 μM.

For the molecule `CC(=O)N1CCC(=C2c3ccc(Cl)cc3CCc3cc(C(C)(C)C)c[n+]([O-])c32)CC1` [Example 133], the FPT inhibition (at 14.1 μM) came to 16% at 14.1 μM.

With `CC(=O)N1CCC(=C2c3ccc(Cl)cc3CCc3c(Cl)ccnc32)CC1` [Example 135], the IC50 turned out to be 7.7 µM.

Take `COc1ccnc2c1CCc1cc(Cl)ccc1C2=C1CCN(C(C)=O)CC1` [Example 136]: the IC50 stood at 11.5 µM.

In turn, `CC(=O)N1CCC(=C2c3ccc(Cl)cc3CC(C)c3cccnc32)CC1` (stereo not shown) [Example 137] displayed an FPT inhibition (at 16.3 μM) of 15% at 16.3 μM.

Take `CC(=O)c1cnc2c(c1)CCc1cc(Cl)ccc1C2=C1CCN(C(C)=O)CC1` [Example 139]: where the note is “at 15.2 μM”, the FPT inhibition is given as 37% at 15.2 μM.

For `CC(=O)N1CCC(=C2c3ccccc3CCc3c2[nH]c2ccccc32)CC1` [Example 140], the IC50 was 15.7 µM.

Take `CC(=O)N1CCC(C2c3cc4ccccc4cc3CCc3ccc[n+]([O-])c32)CC1` (stereo not shown) [Example 141]: the FPT inhibition (at 50 μM) stood at 29% at 50 μM.

Regarding `CC(=O)N1CCC(=C2c3ccncc3CCc3cc(Cl)ccc32)CC1` [Example 143], the IC50 amounted to 35.4 µM.

For `CC(=O)N1CCC(=C2c3ccc(Cl)cc3CCc3ncccc32)CC1` [Example 144], the FPT inhibition (at 50 μM) is 30% at 50 μM.

On to `O=C(c1cc[n+]([O-])cc1)N1CCC(=C2c3ccncc3CCc3cc(Cl)ccc32)CC1` [Example 144a], for which the FPT inhibition (at 46 μM) was found to be 47% at 46 μM.

Take `COCC(=O)N1CCC(=C2c3ccc(F)cc3CCc3cccnc32)CC1` [Example 145]: the IC50 is over 10 µM.

Take `O=C(c1cc[n+]([O-])cc1)N1CCC(=C2c3ccccc3CCc3cc(Cl)ccc32)CC1` [Example 146]: where the note is “at 12 μM”, the FPT inhibition is recorded as 45% at 12 μM.

In the case of `CC(=O)N1CCC(=C2c3ccccc3CCc3cccnc32)CC1` [Example 147], the FPT inhibition (at 18.8 μM) is recorded as 0% at 18.8 μM.

`CC(=O)N1CCN(C2c3ccc(Cl)cc3CCc3cccnc32)CC1C` (stereo not shown) [Example 149]: the IC50 came to 10.8 µM.

`CC(=O)N1CCC(C2c3ccc(Cl)cc3CCc3cccnc32)CC1` (stereo not shown) [Example 150] had an FPT inhibition (at 16.9 μM) of 38% at 16.9 μM.

As to `O=C(c1cc[n+]([O-])cc1)N1CCC(=C2c3ccccc3CCc3ccccc32)CC1` [Example 151], the IC50 is 15 µM.

Take `O=C(c1ccc(=O)[nH]c1)N1CCC(=C2c3ccccc3CCc3ccccc32)CC1` [Example 152]: the IC50 was determined as 15 µM.

As for `CC(=O)N1CCN(C2c3ccccc3CCc3ccccc32)CC1` [Example 153], the IC50 worked out at 29.6 µM.

On to `CC(C)(C)OC(=O)N1CCC(CC(=O)N2CCN(C3c4ccc(Cl)cc4CCc4cccnc43)CC2)CC1` (stereo not shown) [Example 193], for which the IC50 came out at 7.4 µM.

`CC(=O)N1CCCC(C(=O)N2CCN(C3c4ccc(Cl)cc4CCc4cccnc43)CC2)C1` (stereo not shown) [Example 194]: the IC50 came out at 4.3 µM.

As for `CN1CCCC(C(=O)N2CCN(C3c4ccc(Cl)cc4CCc4cccnc43)CC2)C1` (stereo not shown) [Example 195], the IC50 is 6.8 µM.

In the case of `CC(C)(C)OC(=O)N1CCC(C(=O)N2CCN(C3c4ccc(Cl)cc4CCc4cccnc43)CC2)CC1` (stereo not shown) [Example 202], the FPT inhibition (at 11 μM) stood at 20% @.

On to `CC(=O)N1CCCC(CC(=O)N2CCN(C3c4ccc(Cl)cc4CCc4cccnc43)CC2)C1` (stereo not shown) [Example 205], for which the 50% inhibitory concentration (IC50) worked out at 3.1 µM.

For the molecule `O=C(NCC(=O)N1CCN(C2c3ccc(Cl)cc3CCc3cccnc32)CC1)OCc1ccccc1` (stereo not shown) [Example 207], the FPT inhibition (at 12 μM) is 40% @.

Turning to `O=C(Cc1ccc(O)cc1)NCC(=O)N1CCN(C2c3ccc(Cl)cc3CCc3cccnc32)CC1` (stereo not shown) [Example 210], the IC50 turned out to be 7.93 µM.

As to `O=C(N[C@@H](Cc1ccccc1)C(=O)N1CCN(C2c3ccc(Cl)cc3CCc3cccnc32)CC1)OCc1ccccc1` (stereo partly shown) [Example 213], for the setting “at 10 μM”, the FPT inhibition is 23% @.

With `CC(C)(C)OC(=O)N[C@@H](Cc1ccccc1)C(=O)N1CCN(C2c3ccc(Cl)cc3CCc3cccnc32)CC1` (stereo partly shown) [Example 214], where the note is “at 10 μM”, the FPT inhibition amounted to 0% @.

The molecule `NC(Cc1ccccc1)C(=O)N1CCN(C2c3ccc(Cl)cc3CCc3cccnc32)CC1` (stereo not shown) [Example 215] gave an FPT inhibition (at 13 μM) of 30% @.

Molecule `O=C([C@H](Cc1ccccc1)N1C(=O)c2ccccc2C1=O)N1CCN(C2c3ccc(Cl)cc3CCc3cccnc32)CC1` (stereo partly shown) [Example 216] registered an FPT inhibition (at 10 μM) of 34% @.

On to `O=C(Cc1csc2ccccc12)N1CCC(=C2c3ccc(Cl)cc3CCc3cccnc32)CC1` [Example 221], for which the IC50 was 3.71 µM.

For `O=C(Cc1ccncc1)N1CCC(=C2c3ccc(Cl)cc3CCc3ccc[n+]([O-])c32)CC1` [Example 230], the IC50 is 2.06 µM.

Turning to `O=C(Cc1cc[n+]([O-])cc1)N1CCC(=C2c3ccc(Cl)cc3CCc3ccc[n+]([O-])c32)CC1` [Example 232], the IC50 was 6 µM.

In the case of `O=C(Cc1cccnc1)N1CCC(=C2c3ccc(Cl)cc3CCc3cc(O)cnc32)CC1` [Example 240], the IC50 came out at 3.12 µM.

With `O=C(Cc1cccnc1)N1CCC(=C2c3ccc(Cl)cc3CCc3c(O)ccnc32)CC1` [Example 252], the IC50 is 7.2 µM.

Consider `O=C(Cc1cccnc1)N1CCC(=C2c3ccc(Cl)cc3CCc3c2ncc(Br)c3O)CC1` [Example 253], for which the IC50 was 4.3 µM.

In the case of `C[S+]([O-])c1ccnc2c1CCc1cc(Cl)ccc1C2=C1CCN(C(=O)Cc2cccnc2)CC1` (stereo not shown) [Example 256], the IC50 came to 4.9 µM.

Take `COC(=O)CSc1ccnc2c1CCc1cc(Cl)ccc1C2=C1CCN(C(=O)Cc2cccnc2)CC1` [Example 257]: the IC50 was 2.3 µM.

As for `O=C(Cc1cccnc1)N1CCC(=C2c3ccc(Cl)cc3CCc3c(SCc4ccccc4)ccnc32)CC1` [Example 258], the IC50 came to 10.8 µM.

On to `Cn1nnnc1Sc1ccnc2c1CCc1cc(Cl)ccc1C2=C1CCN(C(=O)Cc2cccnc2)CC1` [Example 259], for which the IC50 amounted to 2.2 µM.

Consider `O=C(Nc1cccnc1)N1CCC(=C2c3ccc(Cl)cc3CCc3c(On4nnc5ccccc54)ccnc32)CC1` [Example 262], for which the IC50 was 0.82 µM.

On to `O=C(Nc1cccnc1)N1CCC(=C2c3ccc(Cl)cc3CCc3c(O)ccnc32)CC1` [Example 263], for which the IC50 was 9.8 µM.

In the case of `CC(C)(C(=O)N1CCC(C2c3ccc(Cl)cc3C=Cc3cccnc32)CC1)c1cccnc1` (stereo not shown) [Example 268], the IC50 is 1.22 µM.

Take `O=C(Cc1cccnc1)N1CCC(C2c3ccc(Cl)cc3C=Cc3c(Cl)ccnc32)CC1` (stereo not shown) [Example 273]: the half-maximal inhibitory concentration (IC50) was determined as 0.84 µM.

On to `O=C(Nc1cccnc1)N1CCC(=C2c3ccc(Cl)cc3C=Cc3cccnc32)CC1` [Example 277], for which the IC50 worked out at 2.3 µM.

Consider `O=C1Cc2cc(Cl)ccc2C(=C2CCN(C(=O)Cc3cccnc3)CC2)c2ncccc21` [Example 279], for which the IC50 amounted to 7.7 µM.

In the case of `O=C(Cc1cccnc1)N1CCC(=C2c3ccc(Cl)cc3CC(O)c3cccnc32)CC1` (stereo not shown) [Example 280], the IC50 stood at 23 µM.

In the case of `O=C(Cc1ccncc1)N1CCC(=C2c3ccc(Cl)cc3CC(O)c3cccnc32)CC1` (stereo not shown) [Example 282], the IC50 stood at 4.5 µM.

Take `O=C(Cc1cccnc1)N1CCC(=C2c3ccc(Cl)cc3C(O)Cc3cccnc32)CC1` (stereo not shown) [Example 284]: the IC50 is 4.3 µM.

On to `O=C(C(=O)N1CCC(=C2c3ccc(Cl)cc3CCc3cccnc32)CC1)c1ccccc1` [Example 296], for which the IC50 was 4.1 µM.

For the molecule `CC(C)(C(=O)N1CCC(=C2c3ccc(Cl)cc3CCc3cccnc32)CC1)c1ccncc1` [Example 299], the IC50 was 1.34 µM.

On to `O=C(Cc1cccnc1)N1CCC(=C2c3ccccc3CCc3cccnc32)CC1` [Example 323], for which the IC50 was 4.9 µM.

Consider `O=C(Cc1ccncc1)N1CCC(=C2c3ccc(Cl)cc3CCc3c2ncc(Br)c3Cl)CC1` [Example 356], for which the IC50 was 0.062 µM and 0.073 µM.

As for `CC(C)(C(=O)N1CCC(=C2c3ccc(Cl)cc3CCc3cc(Br)cnc32)CC1)c1ccc[n+]([O-])c1` [Example 360], the IC50 came out at 0.59 µM.
